17 molecules from US9896441B2 (Lycera Corporation, priority 2014, dated 2018) can be followed below.

One assay concerns the target T1, RORγ-LBD (Homo sapiens, UniProt P51449).
T1 construct: made in house; host or cells: SF9 cells (baculovirus); used as diluted lysate
T1 sequence (P51449 269-508 limits assumed): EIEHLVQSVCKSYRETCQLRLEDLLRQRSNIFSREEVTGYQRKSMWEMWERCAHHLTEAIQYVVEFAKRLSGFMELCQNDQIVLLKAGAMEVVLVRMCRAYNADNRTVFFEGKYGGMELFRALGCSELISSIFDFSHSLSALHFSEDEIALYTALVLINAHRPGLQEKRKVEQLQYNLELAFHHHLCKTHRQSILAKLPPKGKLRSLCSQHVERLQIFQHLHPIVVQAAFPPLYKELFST
The assay can be described thus: RORγ-Ligand Binding Domain (LBD) TR-FRET Assay.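 As to TR-FRET Assay Max Response: 665/615 nm signal ratio set to 100 without ursolic acid or test compound.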 It counts as biochemical. The following applies: RORγ-LBD TR-FRET assay; for TR-FRET Assay Max Response: maximum response. In short, it runs like this: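 His-tagged RORγ-LBD from SF9 baculovirus lysate, ~3 nM final, in 50 mM Tris pH 7.0, 50 mM KCl, 1 mM EDTA, 0.1 mM DTT, 0.01% BSA. Biotinylated SRC1 LXXLL peptide at 200 nM final with 2 μM ursolic acid; TR-FRET read-out, 1% DMSO final.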
In general terms: In TR-FRET formats the signal depends on donor and acceptor labels being close together.

Another assay has as its target T2, Gal4-RORγ-LBD (Homo sapiens, UniProt P51449).
T2 construct: expressed in transfected cells
T2 sequence (P51449 269-508 limits assumed): T1 sequence (P51449 269-508 limits assumed)
The assay can be described thus: Gal4-RORγ Luciferase Reporter Assay in HEK-293T Cells. The assay is classed as cell-based. The note with it: HEK-293 cells, luciferase reporter, in presence of ursolic acid; for Gal4-RORγ Assay Max Response: maximum response. In short, it runs like this: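 HEK-293 cells were co-transfected with Gal4-RORγ-LBD and a Gal4-luciferase reporter, then exposed overnight at 37 °C to compounds with […] ursolic acid present (0.2% DMSO). Luminescence was read with One-Glo after 10 min at RT, untreated signal was set as 100, and Max Response was taken as the upper plateau of a 4-parameter logistic fit.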

A value given as a limit tells only on which side of the number the result lay.

Consider `COc1cc(S(=O)(=O)N2C[C@H](CNC(=O)[C@H]3CC[C@H](C(=O)O)CC3)Oc3ccc(/C=C(\C)c4c(F)cccc4Cl)cc32)ccc1F` [Example 135C, (1S,4r)-4-((((S)-6-((E)-2-(2-chloro-6-fluoro-phenyl)prop-1-en-1-yl)-4-((4-fluoro-3-methoxy-phenyl)sulfonyl)-3,4-dihydro-2H-benzo[b][1,4]oxazin-2-yl)methyl)carbamoyl)-cyclohexane-1-carboxylic acid], for which, on RORγ-LBD, the EC50 (as a rule, the concentration at which the effect is half-maximal) is < 500 nM and the “TR-FRET Assay Max Response” value is reported as “*** (a value in the range of greater than 150 to 200)”. On Gal4-RORγ-LBD, the 50% effective concentration (EC50) lay within 500 to 5000 nM and the “Gal4-RORγ Assay Max Response” value is given as “* (a value in the range of 30 to 90)”.
Taken in the same sequence, the figures for `COc1cc(S(=O)(=O)N2c3cc(/C=C/c4c(F)cccc4Cl)ccc3O[C@@H](CO)[C@H]2C)ccc1F` [Example 136, ((2R,3R)-6-((E)-2-Chloro-6-fluorostyryl)-4-((4-fluoro-3-methoxyphenyl)sulfonyl)-3-methyl-3,4-dihydro-2H-benzo[b][1,4]oxazin-2-yl)methanol] were < 500 nM, “**** (a value greater than 200)”, < 500 nM and “** (a value in the range of greater than 90 to 150)”.
Taken in the same sequence, the figures for `COc1cc(S(=O)(=O)N2c3cc(/C=C(\C)c4c(F)cccc4Cl)ccc3O[C@@H](CNC(C)=O)[C@H]2C)ccc1F` [Example 137] were < 500 nM, “**** (a value greater than 200)”, < 500 nM and “** (a value in the range of greater than 90 to 150)”.
`COc1cc(S(=O)(=O)N2c3cc(OCc4c(F)cccc4Cl)ccc3C=C(CO)[C@H]2C)ccc1F` [Example 138, (R)-(7-((2-Chloro-6-fluorobenzyl)oxy)-1-((4-fluoro-3-methoxyphenyl)sulfonyl)-2-methyl-1,2-dihydroquinolin-3-yl)methanol]: on RORγ-LBD, the EC50 is < 500 nM and the “TR-FRET Assay Max Response” value is “** (a value in the range of greater than 90 to 150)”. Further, on Gal4-RORγ-LBD, the EC50 was < 500 nM and the “Gal4-RORγ Assay Max Response” value is “*** (a value in the range of greater than 150 to 200)”.
Consider `COc1cc(S(=O)(=O)N2c3cc(OCc4c(F)cccc4Cl)ccc3C=C(CN)[C@H]2C)ccc1F` [Example 139, (R)-(7-((2-Chloro-6-fluorobenzyl)oxy)-1-((4-fluoro-3-methoxyphenyl)sulfonyl)-2-methyl-1,2-dihydroquinolin-3-yl)methanamine], for which the concentration for a half-maximal effect (EC50) on RORγ-LBD was < 500 nM; on Gal4-RORγ-LBD it was 500 to 5000 nM.
On the same counts, the results for `COc1cc(S(=O)(=O)N2c3cc(OCc4c(F)cccc4Cl)ccc3C=C(CNC(C)=O)[C@H]2C)ccc1F` [Example 140, (R)—N-((7-((2-Chloro-6-fluorobenzyl)oxy)-1-((4-fluoro-3-methoxyphenyl)sulfonyl)-2-methyl-1,2-dihydroquinolin-3-yl)methyl)acetamide] are < 500 nM and < 500 nM.
In the case of `C/C(=C\c1ccc2c(c1)N(S(=O)(=O)c1cccc(C(F)(F)F)c1)[C@H](C)[C@H](C(=O)O)C2)c1c(F)cccc1Cl` [Example 142, (2R,3R)-7-((E)-2-(2-Chloro-6-fluorophenyl)prop-1-en-1-yl)-2-methyl-1-((3-(trifluoromethyl)phenyl)sulfonyl)-1,2,3,4-tetrahydroquinoline-3-carboxylate], on RORγ-LBD, the concentration for a half-maximal effect (EC50) is < 500 nM and the “TR-FRET Assay Max Response” value is “** (a value in the range of greater than 90 to 150)”. Moreover, at Gal4-RORγ-LBD, the half-maximal effective concentration (EC50) is < 500 nM and the “Gal4-RORγ Assay Max Response” value is “** (a value in the range of greater than 90 to 150)”.
For `C/C(=C\c1ccc2c(c1)N(S(=O)(=O)c1cccc(C(F)(F)F)c1)[C@H](C)[C@H](NC(=O)N(C)C)C2)c1c(F)cccc1Cl` [Example 146, 3-((2R,3R)-7-((E)-2-(2-Chloro-6-fluorophenyl)prop-1-en-1-yl)-2-methyl-1-((3-(trifluoromethyl)phenyl)sulfonyl)-1,2,3,4-tetrahydroquinolin-3-yl)-1,1-dimethylurea], at RORγ-LBD, the EC50 was < 500 nM and the “TR-FRET Assay Max Response” value is “** (a value in the range of greater than 90 to 150)”. Further, on Gal4-RORγ-LBD, the EC50 is > 10000 nM.
For the molecule `C/C(=C\c1ccc2c(c1)N(S(=O)(=O)c1cccc(C(F)(F)F)c1)[C@H](C)[C@H](N)C2)c1c(F)cccc1Cl` [Example 147, (2R,3R)-7-((E)-2-(2-Chloro-6-fluorophenyl)prop-1-en-1-yl)-2-methyl-1-((3-(trifluoromethyl)phenyl)sulfonyl)-1,2,3,4-tetrahydroquinolin-3-amine], at RORγ-LBD, the EC50 was < 500 nM and the “TR-FRET Assay Max Response” value was “*** (a value in the range of greater than 150 to 200)”. Besides, on Gal4-RORγ-LBD, the EC50 was in the range of 500 to 5000 nM and the “Gal4-RORγ Assay Max Response” value is recorded as “** (a value in the range of greater than 90 to 150)”.
As to `COc1cc(S(=O)(=O)N2c3cc(OCc4c(F)cccc4Cl)ccc3C[C@@H](CNC(C)=O)[C@H]2C)ccc1F` [Example 152, N-(((2R,3S)-7-((2-Chloro-6-fluorobenzyl)oxy)-1-((4-fluoro-3-methoxyphenyl)sulfonyl)-2-methyl-1,2,3,4-tetrahydroquinolin-3-yl)methyl)acetamide], on RORγ-LBD, the EC50 was < 500 nM and the “TR-FRET Assay Max Response” value was “*** (a value in the range of greater than 150 to 200)”. Also, on Gal4-RORγ-LBD, the concentration for a half-maximal effect (EC50) is < 500 nM and the “Gal4-RORγ Assay Max Response” value is listed as “** (a value in the range of greater than 90 to 150)”.
As for `COC(=O)C(C)(C)C[C@@H]1Cc2ccc(/C=C/c3c(F)cccc3Cl)cc2N(S(=O)(=O)c2ccc(F)c(OC)c2)C1` [Example 153, Methyl (S,E)-3-(7-(2-chloro-6-fluorostyryl)-1-((4-fluoro-3-methoxyphenyl)sulfonyl)-1,2,3,4-tetrahydroquinolin-3-yl)-2,2-dimethylpropanoate], at RORγ-LBD, the 50% effective concentration (EC50) was < 500 nM and the “TR-FRET Assay Max Response” value is given as “*** (a value in the range of greater than 150 to 200)”. At Gal4-RORγ-LBD, the EC50 is > 10000 nM and the “Gal4-RORγ Assay Max Response” value is “* (a value in the range of 30 to 90)”.
On the same counts, the results for `COc1cc(S(=O)(=O)N2C[C@H](CC(C)(C)C(=O)O)Cc3ccc(/C=C/c4c(F)cccc4Cl)cc32)ccc1F` [Example 154A] are < 500 nM, “** (a value in the range of greater than 90 to 150)”, < 500 nM and “* (a value in the range of 30 to 90)”.
In the case of `COc1cc(S(=O)(=O)N2C[C@H](CC(C)(C)C(=O)O)Cc3ccc(/C=C(\C)c4c(F)cccc4Cl)cc32)ccc1F` [Example 154C, (S,E)-3-(7-(2-(2-chloro-6-fluorophenyl)prop-1-en-1-yl)-1-((4-fluoro-3-methoxyphenyl)sulfonyl)-1,2,3,4-tetrahydroquinolin-3-yl)-2,2-dimethylpropanoic acid], at RORγ-LBD, the EC50 is < 500 nM and the “TR-FRET Assay Max Response” value is given as “** (a value in the range of greater than 90 to 150)”. Also, at Gal4-RORγ-LBD, the EC50 was 500 to 5000 nM and the “Gal4-RORγ Assay Max Response” value is “** (a value in the range of greater than 90 to 150)”.
On to `O=S(=O)(c1cccc(C(F)(F)F)c1)N1C[C@H](O)Cc2ccc(OCc3c(F)cccc3Cl)cc21` [Example 155, (R)-7-((2-Chloro-6-fluorobenzyl)oxy)-1-((3-(trifluoromethyl)phenyl)sulfonyl)-1,2,3,4-tetrahydroquinolin-3-ol], for which, on RORγ-LBD, the EC50 is < 500 nM and the “TR-FRET Assay Max Response” value is recorded as “** (a value in the range of greater than 90 to 150)”. On Gal4-RORγ-LBD, the EC50 is < 500 nM and the “Gal4-RORγ Assay Max Response” value is on record as “** (a value in the range of greater than 90 to 150)”.
As for `O=C(O)CO[C@@H]1Cc2ccc(OCc3c(F)cccc3Cl)cc2N(S(=O)(=O)c2cccc(C(F)(F)F)c2)C1` [Example 157, (R)-2-((7-((2-Chloro-6-fluorobenzyl)oxy)-1-((3-(trifluoromethyl)phenyl)sulfonyl)-1,2,3,4-tetrahydroquinolin-3-yl)oxy)acetic acid], on RORγ-LBD, the half-maximal effective concentration (EC50) is < 500 nM and the “TR-FRET Assay Max Response” value is recorded as “** (a value in the range of greater than 90 to 150)”. Further, on Gal4-RORγ-LBD, the EC50 lay within 500 to 5000 nM and the “Gal4-RORγ Assay Max Response” value is “** (a value in the range of greater than 90 to 150)”.
On to `O=S(=O)(c1cccc(C(F)(F)F)c1)N1C[C@@H](O)Cc2ccc(OCc3c(F)cccc3Cl)cc21` [Example 158, (S)-7-((2-Chloro-6-fluorobenzyl)oxy)-1-((3-(trifluoromethyl)phenyl)sulfonyl)-1,2,3,4-tetrahydroquinolin-3-ol], for which the EC50 at RORγ-LBD and at Gal4-RORγ-LBD was < 500 nM in each case.
Consider `N[C@@H]1Cc2ccc(OCc3c(F)cccc3Cl)cc2N(S(=O)(=O)c2cccc(C(F)(F)F)c2)C1` [Example 159, (R)-7-((2-Chloro-6-fluorobenzyl)oxy)-1-((3-(trifluoromethyl)phenyl)sulfonyl)-1,2,3,4-tetrahydroquinolin-3-amine], for which the EC50 on RORγ-LBD is < 500 nM; on Gal4-RORγ-LBD, 500 to 5000 nM.
